# Reference: patent US10562857B2 (AFASCI, Inc., priority 2015, dated 2020)
# “Also recorded” adds a separate entry of the source.
# Columns and labels:
# SNI mice [1] = experiment: Spared nerve injury (SNI) mice, Hargreaves thermal test; assay type: in vivo, mouse; conditions: 30 mg/kg, 0.2 mL I.P.
# Description: FIG. 1A. Examples of compounds that mitigate neuropathic pain induced by Spared Nerve Injury (SNI) in mice. The withdrawal latencies of the mice's left hindpaws (injured site) in response to thermal stimulation (Hargreaves test). Each SNI mouse received either EXAMPLE (EX)-11, -14, -38, -62, or 113, or gabapentin, as benchmark (each 30 mg/kg, 0.2 mL I.P.), or vehicle (0.2 mL I.P. 2% DMSO in 0.5% Hydroxyl Propyl Cellulose, HPC). […] 40 seconds were cut off in order to prevent tissue damage (n=8 per group).
# (§1) T-channel specific inhibitors are not yet available for clinical treatment of neuropathic pain. The spared nerve injury (SNI) model, one of the reliable neuropathic pain models in mice and rats (Decosterd and Woolf, 2000), was used to assess the effects of the representative compounds.
# (§2) Of the three branches of the sciatic nerve, the tibial and common peroneal nerves of the mice (C57BL/6, male, 25-30 g, Harlan) were cut and ligated, leaving the sural nerve intact. Pre-surgery baselines (100%) of the thermal and mechanical pain thresholds of the ipsilateral hind paws were measured using the Hargreaves thermal stimulator (Hargreaves et al., 1988) and von Frey hair monofilaments (up-down method, Chaplan et al., 1994), respectively. Mice underwent the SNI surgery on their left hind leg. Two weeks post-surgery, the thermal thresholds of each mouse were reassessed.
# (§3) EXAMPLE-11, 14, 38, 62, or 113 (FIGS. 1A and B) and EXAMPLE-12, 16, 19, 39, or 44 (FIGS. 2A and B) were administered at 30 mg/kg (0.2 mL I.P.) in a vehicle (pure DMSO to dissolve the powder first and then add 0.5% Hydroxyl Propyl Cellulose, HPC, to contain 2% DMSO in injection solution). All drug solutions used the same vehicle, unless specified otherwise.
# Cav3.2 channel = biological target: T1, Cav3.2 channel (Homo sapiens, UniProt O95180); experiment: Whole-cell patch clamp of T-type Cav3.2 channel expressed in HEK293 cells; assay type: cell-based; conditions: for IC50: Table 1, tested at at least 4 concentrations, read-out: IC50; for inhibition at 1 µM: HEK293, Table 1 primary screening
# T1 construct: expressed in transfected cells; host or cells: HEK-293, tetracycline inducible expression system (Invitrogen)
# T1 sequence (O95180 whole entry): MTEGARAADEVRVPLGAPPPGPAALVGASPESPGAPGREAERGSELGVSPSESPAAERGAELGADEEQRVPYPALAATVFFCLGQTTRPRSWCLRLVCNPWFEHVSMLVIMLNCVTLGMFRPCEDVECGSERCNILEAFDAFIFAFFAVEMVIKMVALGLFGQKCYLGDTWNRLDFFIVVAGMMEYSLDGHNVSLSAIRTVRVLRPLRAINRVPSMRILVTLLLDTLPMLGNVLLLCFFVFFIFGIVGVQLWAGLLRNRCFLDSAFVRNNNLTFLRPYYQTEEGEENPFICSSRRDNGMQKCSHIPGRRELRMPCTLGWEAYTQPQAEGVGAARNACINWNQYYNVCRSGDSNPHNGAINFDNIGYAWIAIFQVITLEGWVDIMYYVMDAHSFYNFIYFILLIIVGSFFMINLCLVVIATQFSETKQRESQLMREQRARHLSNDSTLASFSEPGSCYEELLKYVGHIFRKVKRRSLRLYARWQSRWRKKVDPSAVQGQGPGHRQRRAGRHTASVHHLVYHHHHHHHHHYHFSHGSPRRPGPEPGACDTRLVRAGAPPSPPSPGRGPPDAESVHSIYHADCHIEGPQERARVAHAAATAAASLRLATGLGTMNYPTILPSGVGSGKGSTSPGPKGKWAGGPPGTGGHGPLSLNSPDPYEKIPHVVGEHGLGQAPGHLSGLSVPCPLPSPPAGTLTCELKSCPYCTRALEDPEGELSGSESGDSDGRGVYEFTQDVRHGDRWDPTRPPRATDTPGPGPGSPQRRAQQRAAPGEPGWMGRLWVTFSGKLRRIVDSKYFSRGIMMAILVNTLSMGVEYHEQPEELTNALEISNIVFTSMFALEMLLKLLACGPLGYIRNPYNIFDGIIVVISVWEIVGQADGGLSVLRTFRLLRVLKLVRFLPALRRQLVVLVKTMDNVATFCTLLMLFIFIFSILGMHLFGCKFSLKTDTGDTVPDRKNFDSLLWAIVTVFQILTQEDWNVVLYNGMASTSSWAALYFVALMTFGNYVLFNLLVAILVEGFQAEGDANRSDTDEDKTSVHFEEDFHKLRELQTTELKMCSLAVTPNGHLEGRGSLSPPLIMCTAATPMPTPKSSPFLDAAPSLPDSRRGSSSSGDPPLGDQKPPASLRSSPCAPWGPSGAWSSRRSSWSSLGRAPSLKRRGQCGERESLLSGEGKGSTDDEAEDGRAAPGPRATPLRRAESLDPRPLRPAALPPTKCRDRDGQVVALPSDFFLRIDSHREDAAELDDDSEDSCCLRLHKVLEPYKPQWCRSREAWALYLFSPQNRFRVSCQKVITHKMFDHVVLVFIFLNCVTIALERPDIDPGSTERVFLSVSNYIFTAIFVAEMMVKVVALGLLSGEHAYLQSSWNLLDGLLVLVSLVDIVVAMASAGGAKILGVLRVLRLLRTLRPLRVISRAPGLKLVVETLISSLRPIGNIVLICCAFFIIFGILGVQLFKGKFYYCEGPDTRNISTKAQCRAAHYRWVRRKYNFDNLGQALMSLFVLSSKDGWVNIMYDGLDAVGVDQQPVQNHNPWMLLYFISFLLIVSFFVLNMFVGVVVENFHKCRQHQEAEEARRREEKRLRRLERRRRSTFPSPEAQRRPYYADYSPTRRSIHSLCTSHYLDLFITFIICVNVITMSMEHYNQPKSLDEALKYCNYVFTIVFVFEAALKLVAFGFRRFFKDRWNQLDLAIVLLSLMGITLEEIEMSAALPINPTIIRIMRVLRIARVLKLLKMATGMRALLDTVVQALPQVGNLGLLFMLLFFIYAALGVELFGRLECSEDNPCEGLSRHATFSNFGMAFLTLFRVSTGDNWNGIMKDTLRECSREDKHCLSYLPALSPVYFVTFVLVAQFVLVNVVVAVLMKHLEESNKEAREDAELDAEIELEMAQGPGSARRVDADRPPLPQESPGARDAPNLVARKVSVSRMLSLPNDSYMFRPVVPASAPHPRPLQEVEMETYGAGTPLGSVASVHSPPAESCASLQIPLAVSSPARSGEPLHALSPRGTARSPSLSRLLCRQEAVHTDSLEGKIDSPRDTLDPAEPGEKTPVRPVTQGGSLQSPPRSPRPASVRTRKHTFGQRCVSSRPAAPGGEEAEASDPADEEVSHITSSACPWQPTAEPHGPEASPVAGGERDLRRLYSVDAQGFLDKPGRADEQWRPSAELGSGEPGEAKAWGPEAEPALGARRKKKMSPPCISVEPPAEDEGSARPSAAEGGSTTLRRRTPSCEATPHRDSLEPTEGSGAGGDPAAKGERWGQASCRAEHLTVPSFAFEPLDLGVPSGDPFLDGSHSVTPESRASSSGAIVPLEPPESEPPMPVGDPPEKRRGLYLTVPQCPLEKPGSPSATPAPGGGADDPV
# SNI mice [2] = experiment: Spared nerve injury (SNI) mice, von Frey monofilament test; assay type: in vivo, mouse; conditions: 30 mg/kg, 0.2 mL I.P.
# From the text: FIG. 1B. Mechanical pain threshold assessment (using von Frey monofilament test) of the same cohort of SNI mice's left hindpaws.
# as §1, §2, §3
# CFA mice = experiment: Complete Freund's Adjuvant (CFA)-induced inflammatory pain in mice, von Frey test; assay type: in vivo, mouse
# Description: FIG. 7. Effects of EXAMPLE-96, 107 or 115 (each 30 mg/kg, I.P.) or gabapentin (as a benchmark, 100 mg/kg, I.P) on Complete Freund's Adjuvant (CFA)-induced inflammation in male, mice (C57BL/6, ˜2 months old; n=8 mice per group). Mechanical pain threshold assessment of CFA mice's left hindpaws were measured using von Frey monofilament test at 0.5, 1, 2, 4, and 6 hours after treatment.
# Because knockout or antisense knockdown of the Cav3.2 isoform produces analgesic effects in neuropathic pain as well as in inflammatory pain in mice (Choi et al., 2007), we used the Complete Freund adjuvant (CFA)-inflammatory pain in mice to investigate the drug effects. EXAMPLE-96, -115, and -107 (each at 30 mg/kg, I.P.) and a reference gabapentin (100 mg/kg, I.P.) was individually administered to mice that had CFA-induced inflammation on their left hindpaws.
# SNI rats [3] = experiment: Spared nerve injury (SNI) rats, von Frey monofilament test; assay type: in vivo, rat; conditions: for start of drug action post-injection: 30 mg/kg I.P., thermal and mechanical thresholds; for mechanical pain threshold of left hindpaw (allodynia): 30 mg/kg, 1 mL I.P.
# Description: FIG. 3B. Mechanical pain threshold assessment (von Frey monofilament test) of SNI rats' left hindpaws. Each SNI rat received either EXAMPLE-106, -107, and -115 (each 30 mg/kg, 1 mL I.P.), or vehicle (1 mL I.P. 2% DMSO in 0.5% HPC). Sham rats also received vehicle I.P. injections. […] The sham-vehicle serves as a positive control. Thermal and mechanical pain responses were measured once every hour for 8 consecutive hours after I.P. treatment (n=8 rats per treatment group).
# FIG. 4. Mechanical pain threshold assessment (von Frey monofilament test) of left hindpaws in another cohort of SNI rats. Each SNI rat received either EXAMPLE-128, -130, -132, or Z944 (as a reference compound, each 10 mg/kg, 2 mL oral gavage, P.O.). […] Mechanical pain responses were measured at pre-dosing, 1, 2, 4, and 6 hours post-treatment using von Frey monofilament test (n=8 rats per group).
# (§4) In additional examples shown here, the analgesic effects were further evaluated in another rat species. Baseline thermal and mechanical thresholds of male rats (Sprague-Dawley rats, 275 g-325 g, Harlan) were taken prior to surgery; baseline thresholds were measured on the rats' left hindpaws. Thirty-two rats underwent the SNI surgery on their left hind leg; 8 rats underwent surgery without injury of the nerves as a sham group. Two weeks post-surgery, the thermal thresholds of each rat were reassessed. […] Each rat received either EXAMPLE-106, -107, -115 (each 30 mg/kg, 1 mL I.P.), or vehicle (2% DMSO in 0.5% HPC). Thermal and mechanical thresholds were measured at 1, 2, 3, 4, 5, 6, 7, and 8 hours post-treatment/dosing. […] The drug actions started around 1 hour post-injection and peaked between 2 and 3 hours, and the drug effects gradually declined to pre-treatment levels over 6-7 hours (FIGS. 3A and B).
# In another cohort of SNI rats ((n=8 per group)), mechanical thresholds were measured at pre-dosing, 1, 2, 4, and 6 hours post-treatment using von Frey monofilament test.
# SNI rats [4] = experiment: Spared nerve injury (SNI) rats, Hargreaves thermal test; assay type: in vivo, rat; conditions: 30 mg/kg, 1 mL I.P.
# Description: FIG. 3A. Spared Nerve Injury (SNI) rats' left hindpaw withdrawal latencies in response to thermal stimulation (Hargreaves test). Each SNI rat received either EXAMPLE-106, 107, or 115, (each 30 mg/kg, 1 mL I.P.), or vehicle (2% DMSO in 0.5% HPC). Sham rats also received vehicle I.P. injections. […] 40 seconds were cutoff in order to prevent tissue damage. The sham-vehicle serves as a positive control (n=8 per treatment group).
# as §4
smiles,measurement,setting,value
"CC(C)CN1CCC2(CC1)CC2NC(=O)c1cc(Cl)cc(Cl)c1 (stereo not shown) [Example 11, 3,5-Dichloro-N-(6-isobutyl-6-azaspiro[2.5]octan-1-yl)benzamide]",left hindpaw withdrawal latency to thermal stimulation (hyperalgesia),SNI mice [1],produced analgesic effects; also recorded: reduced hyperalgesia
same,IC50,Cav3.2 channel,420 nM
same,mechanical pain threshold of left hindpaw (allodynia),SNI mice [2],produced analgesic effects; also recorded: reduced allodynia
"CC(C)(C)CCN1CCC2(CC1)CC2NC(=O)c1cc(Cl)cc(Cl)c1 (stereo not shown) [Example 12, 3,5-Dichloro-N-(6-(3,3-dimethylbutyl)-6-azaspiro[2.5]octan-1-yl)benzamide]",left hindpaw withdrawal latency to thermal stimulation (hyperalgesia),SNI mice [1],produced analgesic effects; also recorded: reduced hyperalgesia
same,IC50,Cav3.2 channel,50 nM
same,mechanical pain threshold of left hindpaw (allodynia),SNI mice [2],produced analgesic effects; also recorded: reduced allodynia
"CC(C)(C)NC(=O)CN1CCC2(CC1)CC2NC(=O)c1cc(Cl)cc(Cl)c1 (stereo not shown) [Example 14, N-(6-(2-(tert-Butylamino)-2-oxoethyl)-6-azaspiro[2.5]octan-1-yl)-3,5-dichlorobenzamide]",left hindpaw withdrawal latency to thermal stimulation (hyperalgesia),SNI mice [1],produced analgesic effects; also recorded: reduced hyperalgesia
same,IC50,Cav3.2 channel,30 nM
same,mechanical pain threshold of left hindpaw (allodynia),SNI mice [2],produced analgesic effects; also recorded: reduced allodynia
"CC(C)(C)NC(=O)CN1CCC2(CC1)CC2NC(=O)c1cc(C(F)(F)F)cc(C(F)(F)F)c1 (stereo not shown) [Example 16, N-(6-(2-(tert-Butylamino)-2-oxoethyl)-6-azaspiro[2.5]octan-1-yl)-3,5-bis(trifluoromethyl)benzamide]",left hindpaw withdrawal latency to thermal stimulation (hyperalgesia),SNI mice [1],produced analgesic effects; also recorded: reduced hyperalgesia
same,IC50,Cav3.2 channel,120 nM
same,mechanical pain threshold of left hindpaw (allodynia),SNI mice [2],produced analgesic effects; also recorded: reduced allodynia
"CC(C)(C)CCN1CCC2(CC1)CC2NC(=O)c1cc(C(F)(F)F)cc(C(F)(F)F)c1 (stereo not shown) [Example 19, N-(6-(3,3-Dimethylbutyl)-6-azaspiro[2.5]octan-1-yl)-3,5-bis(trifluoromethyl)benzamide]",left hindpaw withdrawal latency to thermal stimulation (hyperalgesia),SNI mice [1],produced analgesic effects; also recorded: reduced hyperalgesia
same,IC50,Cav3.2 channel,30 nM
same,mechanical pain threshold of left hindpaw (allodynia),SNI mice [2],produced analgesic effects; also recorded: reduced allodynia
"CC(C)(C)OCCN1CCC2(CC1)CC2NC(=O)c1cc(Cl)cc(Cl)c1 (stereo not shown) [Example 38, N-(6-(2-(tert-Butoxy)ethyl)-6-azaspiro[2.5]octan-1-yl)-3,5-dichlorobenzamide]",left hindpaw withdrawal latency to thermal stimulation (hyperalgesia),SNI mice [1],produced analgesic effects; also recorded: reduced hyperalgesia
same,IC50,Cav3.2 channel,40 nM
same,mechanical pain threshold of left hindpaw (allodynia),SNI mice [2],produced analgesic effects; also recorded: reduced allodynia
"O=C(NC1CC12CCN(CC(c1ccccc1)c1ccccc1)CC2)c1cc(Cl)cc(Cl)c1 (stereo not shown) [Example 39, 3,5-Dichloro-N-(6-(2,2-diphenylethyl)-6-azaspiro[2.5]octan-1-yl)benzamide]",left hindpaw withdrawal latency to thermal stimulation (hyperalgesia),SNI mice [1],produced analgesic effects; also recorded: reduced hyperalgesia
same,IC50,Cav3.2 channel,60 nM
same,mechanical pain threshold of left hindpaw (allodynia),SNI mice [2],produced analgesic effects; also recorded: reduced allodynia
"COc1ccc(CCN2CCC3(CC2)CC3NC(=O)c2cc(Cl)cc(Cl)c2)cc1 (stereo not shown) [Example 44, 3,5-Dichloro-N-(6-(4-methoxyphenethyl)-6-azaspiro[2.5]octan-1-yl)benzamide]",left hindpaw withdrawal latency to thermal stimulation (hyperalgesia),SNI mice [1],produced analgesic effects; also recorded: reduced hyperalgesia
same,IC50,Cav3.2 channel,100 nM
same,mechanical pain threshold of left hindpaw (allodynia),SNI mice [2],produced analgesic effects; also recorded: reduced allodynia
O=C(NC1CCC12CCN(CCc1ccccc1)CC2)c1ccccc1 (stereo not shown) [Example 62],left hindpaw withdrawal latency to thermal stimulation (hyperalgesia),SNI mice [1],produced analgesic effects; also recorded: reduced hyperalgesia
same,inhibition at 1 µM,Cav3.2 channel,68%
same,mechanical pain threshold of left hindpaw (allodynia),SNI mice [2],produced analgesic effects; also recorded: reduced allodynia
"CC(C)(C)NC(=O)CN1CCC(CNC(=O)c2ccccc2)CC1 [Example 96, N-((1-(2-(tert-Butylamino)-2-oxoethyl)piperidin-4-yl)methyl)benzamide]","mechanical pain threshold, CFA-induced inflammation",CFA mice; 30 mg/kg I.P.,showed an analgesic effect in mechanical pain
same,inhibition at 1 µM,Cav3.2 channel,40%
"O=C(CN1CCC(CNCC(=O)c2ccc[nH]2)CC1)Nc1ccccc1 [Example 106, 2-(4-(((2-Oxo-2-(1H-pyrrol-2-yl)ethyl)amino)methyl)piperidin-1-yl)-N-phenylacetamide]",start of drug action post-injection,SNI rats [3],around 1 hour
same,mechanical pain threshold of left hindpaw (allodynia),SNI rats [3],elevated both thermal and mechanical thresholds; also recorded: reduced allodynia
same,left hindpaw withdrawal latency to thermal stimulation (hyperalgesia),SNI rats [4],elevated both thermal and mechanical thresholds; also recorded: reduced hyperalgesia
"CC1(CNC(=O)c2ccccc2)CCN(CC(=O)NC(C)(C)C)CC1 [Example 107, N-((1-(2-(tert-butylamino)-2-oxoethyl)-4-methylpiperidin-4-yl)methyl)benzamide]","mechanical pain threshold, CFA-induced inflammation",CFA mice; 30 mg/kg I.P.,showed an analgesic effect in mechanical pain
same,inhibition at 1 µM,Cav3.2 channel,21%
same,start of drug action post-injection,SNI rats [3],around 1 hour
same,mechanical pain threshold of left hindpaw (allodynia),SNI rats [3],elevated both thermal and mechanical thresholds; also recorded: reduced allodynia
same,left hindpaw withdrawal latency to thermal stimulation (hyperalgesia),SNI rats [4],elevated both thermal and mechanical thresholds; also recorded: reduced hyperalgesia
"CC(C)(C)NC(=O)CN1CCC2(CC[C@H]2NC(=O)c2cc(Cl)cc(Cl)c2)CC1 [Example 113, (R)—N-(7-(2-(tert-Butylamino)-2-oxoethyl)-7-azaspiro[3.5]nonan-1-yl)-3,5-dichlorobenzamide]",left hindpaw withdrawal latency to thermal stimulation (hyperalgesia),SNI mice [1],produced analgesic effects; also recorded: reduced hyperalgesia
same,IC50,Cav3.2 channel,640 nM
same,mechanical pain threshold of left hindpaw (allodynia),SNI mice [2],produced analgesic effects; also recorded: reduced allodynia
"NCC1(CC(=O)O)CCCCC1 [gabapentin, reference compound]",left hindpaw withdrawal latency to thermal stimulation (hyperalgesia),SNI mice [1],reduced hyperalgesia
same,"mechanical pain threshold, CFA-induced inflammation",CFA mice; 100 mg/kg I.P.,showed an analgesic effect in mechanical pain
same,mechanical pain threshold of left hindpaw (allodynia),SNI mice [2],reduced allodynia
